From ChEMBL document CHEMBL5661943, “ASAP - In vitro antiviral effect” (2024)
“And” between values parts separate entries of the source, which are not always exact repeats. Equal values may be shown once.

What was measured:
Zika virus [1] = assay: EC50 is reported via analysis of immunofluorescence staining. The assay has been performed by Icahn School of Medicine at Mount Sinai.; format: functional, organism-based, Chlorocebus sabaeus, VeroE6/TMPRSS2; details: Baseline response 0 %, Maximum response 100 %, P-gp concentration 2 uM, P-gp inhibitor Elacidar
dengue virus type 2 [2] = assay: Functional immunofluorescence assay to measure dose dependent changes in antiviral-drug inhibitory efficacy against Dengue virus type 2 Thailand/16681/84 in Vero E6/TMPRSS2 cells (cotreated with P-gp inhibitor, Elacridar). Cells are treated with antiviral candidates that are serially diluted, following infection, cells are fixed. EC50 is reported via analysis of immunofluorescence staining. The assay has been performed by Icahn School of Medicine at Mount Sinai.; format: organism-based, Chlorocebus sabaeus, VeroE6/TMPRSS2; details: for EC90: P-gp concentration 2 uM, P-gp inhibitor Elacidar
Zika virus [3] = assay: Functional CPE-based assay to measure dose dependent changes in antiviral-drug inhibitory efficacy against Zika virus MR766 in Vero E6 miRFP670 cells. Cells are treated with antiviral candidates that are serially diluted. EC50 is reported via analysis of MTS assay as a readout of CPE. The assay has been performed by KU Leuven.; format: organism-based, Chlorocebus sabaeus, Vero C1008; details: Zika virus
Zika virus [4] = assay: Functional immunofluorescence assay to measure dose dependent changes in antiviral-drug inhibitory efficacy against Zika virus PRVABC59 in Vero E6/TMPRSS2 cells. Cells are treated with antiviral candidates that are serially diluted, following infection, cells are fixed. EC50 is reported via analysis of immunofluorescence staining. The assay has been performed by Icahn School of Medicine at Mount Sinai.; format: organism-based, Chlorocebus sabaeus; details: VeroE6/TMPRSS2
dengue virus type 2 [5] = assay: Functional immunofluorescence assay to measure dose dependent changes in antiviral-drug inhibitory efficacy against Dengue virus type 2 Thailand/16681/84 in Vero E6/TMPRSS2 cells. Cells are treated with antiviral candidates that are serially diluted, following infection, cells are fixed. EC50 is reported via analysis of immunofluorescence staining. The assay has been performed by Icahn School of Medicine at Mount Sinai.; format: organism-based, Chlorocebus sabaeus
Zika virus [6] = assay: Functional CPE-based assay to measure dose dependent changes in antiviral-drug inhibitory efficacy against Zika virus MR766 in Vero E6 miRFP670 cells (cotreated with P-gp inhibitor, CP100356). Cells are treated with antiviral candidates that are serially diluted. EC50 is reported via analysis of MTS assay as a readout of CPE. The assay has been performed by KU Leuven.; format: organism-based, Chlorocebus sabaeus, Vero C1008; details: Zika virus, Vero C1008
dengue virus type 2 [7] = assay: Functional assay to measure dose dependent changes in antiviral-drug inhibitory efficacy against Dengue virus type 2 New Guinea C in Vero E6 miRFP670 cells (cotreated with P-gp inhibitor, CP100356). Cells are treated with antiviral candidates that are serially diluted, following infection, cells are fixed. EC50 is reported via analysis of fluorescence intensity using high-content imager. The …; format: organism-based, Chlorocebus sabaeus, Vero C1008; details: for EC90: P-gp concentration 500 nM, P-gp inhibitor CP100356
dengue virus type 2 [8] = assay: Functional CPE-based assay to measure dose dependent changes in antiviral-drug inhibitory efficacy against Dengue virus type 2 New Guinea C in Huh7 cells. Cells are treated with antiviral candidates that are serially diluted. EC50 is reported via analysis of MTT/MTS assay as a readout of CPE. The assay has been performed by National Institute of Allergy and Infectious Diseases.; format: organism-based, Homo sapiens; details: Huh-7

## COc1cc(N[C@@H](C(=O)c2c[nH]c3ccc(OC(F)(F)F)cc23)c2ccc(Cl)cc2OC)cc(S(C)(=O)=O)c1
Zika virus [1]; EC90 CI (lower) 0.002 uM, EC90 CI (upper) 0.172 uM, Hill slope -0.792, Maximum measured 161.955 %, Minimum measured 5.205 %, R squared 0.677
  EC90: 4830 nM
Zika virus [1]; EC90 CI (lower) 0.029 uM, EC90 CI (upper) 0.11 uM, Hill slope -0.824, Maximum measured 111.518 %, Minimum measured 7.6 %, R squared 0.806
  EC90: > 10000 nM
Zika virus [1]; EC90 CI (lower) 0.389 uM, EC90 CI (upper) 1.092 uM, Hill slope -2.761, Maximum measured 123.481 %, Minimum measured 14.219 %, R squared 0.888
  EC90: 3200 nM
Zika virus [1]; Hill slope -12.116, Maximum measured 127.26 %, Minimum measured 45.283 %, R squared 0.53
  EC90: > 3330 nM
Zika virus [1]; Hill slope -12.74, Maximum measured 124.12 %, Minimum measured 2.277 %, R squared 0.501
  EC90: 3790 nM
Zika virus [1]; Hill slope -15.757, Maximum measured 117.305 %, Minimum measured 4.138 %, R squared 0.906
  EC90: 1100 nM
Zika virus [1]; Hill slope -17.776, Maximum measured 116.903 %, Minimum measured 2.275 %, R squared 0.837
  EC90: 3170 nM
Zika virus [1]; Hill slope -18.67, Maximum measured 119.05 %, Minimum measured 1.241 %, R squared 0.846
  EC90: 3280 nM
Dengue virus type 2 [2]; Baseline response 0 %, EC90 CI (lower) 0.626 uM, EC90 CI (upper) 1511.53 uM, Hill slope 3.662, Maximum measured 12.805 %, Maximum response 100 %, Minimum measured 0.049 %, R squared 0.652
  EC90: 9.27 µM
Dengue virus type 2 [2]; Baseline response 0 %, EC90 CI (lower) […] uM, EC90 CI (upper) […] uM, Hill slope -1.863, Maximum measured 115.571 %, Maximum response 100 %, Minimum measured 6.648 %, R squared 0.785
  EC90: 0.061 µM
Dengue virus type 2 [2]; Baseline response 0 %, Hill slope 1.613, Maximum measured 7.031 %, Maximum response 100 %, Minimum measured 0.609 %, R squared 0.305
  EC90: < 0.005 µM
Dengue virus type 2 [2]; Baseline response 0 %, Hill slope 2.619, Maximum measured 1.603 %, Maximum response 100 %, Minimum measured 0.015 %, R squared 0.655
  EC90: < 0.005 µM
Dengue virus type 2 [2]; Baseline response 0 %, Hill slope 2.624, Maximum measured 9.128 %, Maximum response 100 %, Minimum measured 0.482 %, R squared 0.941
  EC90: < 0.005 µM
Dengue virus type 2 [2]; Baseline response 0 %, Hill slope -0.067, Maximum measured 1.374 %, Maximum response 100 %, Minimum measured 0.665 %, R squared 0.06
  EC90: < 0.005 µM
Dengue virus type 2 [2]; Baseline response 0 %, Hill slope -0.101, Maximum measured 7.568 %, Maximum response 100 %, Minimum measured 3.136 %, R squared 0.228
  EC90: < 0.005 µM
Dengue virus type 2 [2]; Dengue virus, VeroE6/TMPRSS2, Maximum measured 1.671 %, Minimum measured 0.643 %
  EC90: < 0.005 µM
Dengue virus type 2 [2]; veroe6/tmprss2
  EC50: < 5 nM and 19 nM
Zika virus [3]; Vero C1008, Baseline response 0 %, Hill slope 9.978, Maximum measured 3.488 %, Maximum response 100 %, Minimum measured -3.611 %, R squared 0.038
  EC90: > 50000 nM
Zika virus [3]; Vero C1008, Baseline response 0 %, Hill slope 52.791, Maximum measured 104.354 %, Maximum response 100 %, Minimum measured 0.394 %, R squared 0.996
  EC90: 452 nM
Zika virus [3]; Vero C1008, Baseline response 0 %, Hill slope -0.752, Maximum measured 14.519 %, Maximum response 100 %, Minimum measured -4.788 %, R squared 0.067
  EC90: < 391 nM
Zika virus [3]; Vero C1008, Baseline response 0 %, Hill slope -0.757, Maximum measured 74.834 %, Maximum response 100 %, Minimum measured -5.889 %, R squared 0.129
  EC90: < 391 nM
Zika virus [3]; Vero C1008, Baseline response 0 %, Hill slope -0.835, Maximum measured 99.922 %, Maximum response 100 %, Minimum measured -10.847 %, R squared 0.106
  EC90: < 391 nM
Zika virus [3]; Vero C1008, Maximum measured 8.337 %, Minimum measured -6.427 %
  EC90: > 50000 nM
Zika virus [3]; Vero C1008, Baseline response 0 %, EC90 CI (lower) 10.077 uM, EC90 CI (upper) 13.839 uM, Hill slope 6.588, Maximum measured 92.835 %, Maximum response 100 %, Minimum measured -3.07 %, R squared 0.987
  EC90: 11800 nM
Zika virus [4]
  EC50: 546 nM
  EC90: 2790 nM
Dengue virus type 2 [5]; VeroE6/TMPRSS2
  EC50: < 5 nM
Dengue virus type 2 [5]; VeroE6/TMPRSS2, Baseline response 0 %, Hill slope -0.076, Maximum measured 4.343 %, Maximum response 100 %, Minimum measured 1.659 %, R squared 0.062
  EC90: < 5 nM
Zika virus [6]
  EC50: 726 nM
Zika virus [6]; Baseline response 0 %, Hill slope 17.55, Maximum measured 78.36 %, Maximum response 100 %, Minimum measured -4.751 %, P-gp concentration 500 nM, R squared 0.965, P-gp inhibitor CP100356
  EC90: > 781 nM
Dengue virus type 2 [7]; Baseline response 0 %, Hill slope 0.131, Maximum measured 1.754 %, Maximum response 100 %, Minimum measured 0.009 %, R squared 0.032
  EC90: < 391 nM
Dengue virus type 2 [7]; Baseline response 0 %, Hill slope 0.182, Maximum measured 0.608 %, Maximum response 100 %, Minimum measured 0.03 %, R squared 0.035
  EC90: < 391 nM
Dengue virus type 2 [7]; Baseline response 0 %, Hill slope 0.299, Maximum measured 0.369 %, Maximum response 100 %, Minimum measured 0.02 %, R squared 0.601
  EC90: < 391 nM
Dengue virus type 2 [7]; Baseline response 0 %, Hill slope 0.306, Maximum measured 1.238 %, Maximum response 100 %, Minimum measured 0.01 %, R squared 0.111
  EC90: < 391 nM
Dengue virus type 2 [7]; Baseline response 0 %, Hill slope 1.135, Maximum measured 0.49 %, Maximum response 100 %, Minimum measured 0.132 %, R squared 0.538
  EC90: < 391 nM
Dengue virus type 2 [7]; Dengue virus, Vero C1008
  EC50: < 391 nM
Dengue virus type 2 [7]; Dengue virus, Vero C1008, Maximum measured 0.33 %, Minimum measured 0.072 %
  EC90: < 391 nM
Dengue virus type 2 [7]; Dengue virus, Vero C1008, Baseline response 0 %, Hill slope 0.447, Maximum measured 0.846 %, Maximum response 100 %, Minimum measured 0.033 %, R squared 0.302
  EC90: < 391 nM
Dengue virus type 2 [8]
  EC50: < 10 nM
